From patent US20060111305A1, “Metabolites of certain [1,4]diazepino[6,7,1-ij]quinoline derivatives and methods of preparation and use thereof” (Wyeth, priority 2004, published 2006)
Read-outs that look alike come from different tables or passages of the source.

Key:
[1] = Rat brain radioactivity content and metabolite profiles after single oral 5 mg/kg [14C]DCDQ; assay type: in vivo, Sprague-Dawley rats
Procedure: At sacrifice, blood samples were collected by cardiac puncture into tubes containing EDTA as the anticoagulant and placing them on ice. Aliquots of 50 μL were removed for combustion and determination of radioactivity content. Plasma was immediately obtained from the remaining blood by centrifugation at 4° C. Brains were excised after perfusion with 50 mL of chilled sterile saline. Urine samples were collected on dry ice at intervals of 0-8 and 8-24 hour post-dosing. Feces were collected at intervals of 0-8 and 8-24 hr post-dosing at room temperature and were homogenized as described previously. The biological specimens and aliquots of the dosing solution at pre- and post-dose were stored at approximately −70° C. until analyzed.
Brain and fecal samples were weighed and homogenized in water at volume-to-weight ratios of about 1:1 and 5:1, respectively. Blood aliquots (50 μL), brain homogenates (0.1 gram) and fecal homogenates (0.2 gram) were placed on Combusto-cones with Combusto-pads and combusted. A model 307 Tri-Carb Sample Oxidizer, equipped with an Oximate-80 Robotic Automatic Sampler (Perkin Elmer), was used for combustion. The liberated ^14CO2 was trapped with Carbo-Sorb E carbon dioxide absorber, mixed with PermaFluor® E+ liquid scintillation cocktail, and counted in a Tri-Carb Model 3100 TR/LL liquid scintillation counter (Perkin Elmer). The oxidation efficiency of the oxidizer was 98.2%.
Brain homogenates were analyzed for metabolite profiles. Aliquots of 1 gram of brain homogenates were mixed with an equal volume of methanol, placed on ice for about 10 minutes and centrifuged. The supernatant was transferred to a clean tube. The residue was extracted three times with 1 mL methanol. The supernatants of each sample were combined, evaporated to about 0.5 mL, and centrifuged. Extraction efficiency was determined by analyzing aliquots of 10 μL of the supernatant for radioactivity. An aliquot (100-200 μL) of the supernatant was analyzed by HPLC with radioactivity flow detection for profiling. Samples were also analyzed by LC/MS to characterize the radioactive peaks.
(§1) A Waters model 2690 HPLC system (Waters Corp., Milford, Mass.) with a built-in autosampler was used for analysis. Separations were accomplished on a Phenomenex Luna C18(2) column (150×2.0 mm, 5 μm) (Phenomenex, Torrance, Calif.). The sample chamber of the autosampler was maintained at 4° C., while the column was at ambient temperature of about 20° C. A variable wavelength UV detector set to monitor 250 nm and a Flo-One β Model A525 radioactivity detector described above were used for data acquisition. The HPLC mobile phase consisted of 10 mM ammonium acetate, pH 4.5 (A) and methanol (B), and was delivered at 0.2 mL/min. Chromatographic condition A was used for dose analysis, while condition B was used for analysis of urine and plasma, brain and fecal extracts.

[2] = Dog fecal excretion and metabolite profiles after oral capsule of [14C]DCDQ; assay type: in vivo, beagle dogs
Procedure: Blood samples were collected from the jugular vein at 2, 4, 8, 24 and 48 hour after dose administration into tubes containing potassium EDTA as the anticoagulant and then placed on ice. Aliquots of 50 μL were removed for combustion and determination of radioactivity content. Plasma was immediately obtained from the remaining blood by centrifugation at 4° C. Urine samples were collected into tubes on dry ice at intervals of 0-8, 8-24 and 24-48 hour post-dose. Fecal samples were collected at intervals of 0-8, 8-24 and 24-48 hour post-dose at room temperature, and were homogenized. The biological specimens were stored at approximately −70° C. until analysis.
Feces were weighed and homogenized in water at a volume-to-weight ratio of about 5:1. Aliquots of blood (200 μL) and fecal homogenates (0.25-0.53 gram) were placed on Combusto-cones with Combusto-pads and combusted. A model 307 Tri-Carb sample oxidizer, equipped with an Oximate-80 robotic automatic sampler (Perkin Elmer), was used for combustion of blood and fecal samples. The liberated ^14CO2 was trapped with Carbo-Sorb E carbon dioxide absorber, mixed with PermaFluor® E+ liquid scintillation cocktail, and counted on a Tri-Carb Model 3100 TR/LL liquid scintillation counter (Perkin Elmer). The efficiency of combustion was 98.9%.
Fecal homogenates were analyzed for metabolite profiles. Aliquots of 1 gram of fecal homogenate were mixed with 2 mL methanol, placed on ice for about 10 minutes and centrifuged. The supernatant was transferred to a clean tube. The residue was extracted three times with 2 mL of a water:methanol (3:7) mixture. The supernatants from each sample were combined, evaporated to about 1 mL, and centrifuged. Extraction efficiency was determined by analyzing aliquots of 10 μL of the supernatant for radioactivity. An aliquot (50-200 μL) of the supernatant was analyzed by HPLC with radioactivity flow detection for metabolite profiles. Samples were also analyzed by LC/MS to characterize the radioactive peaks.
as §1, with “detector” for “detector described above”, “acetonitrile” for “methanol”

SMILES: c1cc2c3c(c1)[C@H]1CCC[C@H]1CN3CCNC2 [DCDQ, (9aR,12aS)-4,5,6,7,9,9a,10,11,12,12a-decahydro-cyclopenta[c][1,4]diazepine[6,7,1-ij]quinoline, reference compound]
- Kp at 2 h ([1]; Sprague-Dawley, rat, brain and plasma, oral, 5 mg/kg, male rats, 2 hr, read-out: Brain/Plasma Ratio, DCDQ): 56.4 ± 11.5
- Kp at 4 h ([1]; Sprague-Dawley, rat, brain and plasma, oral, 5 mg/kg, male rats, 4 hr, read-out: Brain/Plasma Ratio, DCDQ): 50.5 ± 8.88
- concentration at 2 h ([1]; Sprague-Dawley, rat, brain, oral, 5 mg/kg, female rats, 2 hr, mean ± S.D., N = 3, read-out: Brain concentration, DCDQ (estimated)): 6080 ± 2170 ng/g
- concentration at 8 h ([1]; Sprague-Dawley, rat, brain, oral, 5 mg/kg, female rats, 8 hr, mean ± S.D., N = 3, read-out: Brain concentration, DCDQ (estimated)): 2680 ± 660 ng/g
- concentration at 2 h ([1]; Sprague-Dawley, rat, brain, oral, 5 mg/kg, male rats, 2 hr, mean ± S.D., N = 3, read-out: Brain concentration, DCDQ (estimated)): 4630 ± 1180 ng/g
- concentration at 4 h ([1]; Sprague-Dawley, rat, brain, oral, 5 mg/kg, male rats, 4 hr, mean ± S.D., N = 3, read-out: Brain concentration, DCDQ (estimated)): 4470 ± 420 ng/g
- concentration at 8 h ([1]; Sprague-Dawley, rat, brain, oral, 5 mg/kg, male rats, 8 hr, mean ± S.D., N = 3, read-out: Brain concentration, DCDQ (estimated)): 2930 ± 930 ng/g
- Kp at 2 h ([1]; Sprague-Dawley, rat, brain/plasma, oral, 5 mg/kg, female rats, 2 hr, read-out: Brain/Plasma Ratio, DCDQ): 49.9 ± 14.3
- Kp at 8 h ([1]; Sprague-Dawley, rat, brain/plasma, oral, 5 mg/kg, female rats, 8 hr, read-out: Brain/Plasma Ratio, DCDQ): 56.1 ± 17.8
- Kp at 8 h ([1]; Sprague-Dawley, rat, brain/plasma, oral, 5 mg/kg, male rats, 8 hr, read-out: Brain/Plasma Ratio, DCDQ): 50.5 ± 11.4
- Kp ([1]; both sexes, Sprague-Dawley, rat, brain, oral, 5 mg/kg, independent of time or sex, 2 to 8 hour post-dose, read-out: average brain-to-plasma DCDQ ratio): 49.9 to 56.1
- % DCDQ of Brain Radioactivity ([1]; female rats, 2 hr): 95.2 ± 1.0%
- % DCDQ of Brain Radioactivity ([1]; female rats, 8 hr): 94.1 ± 0.7%
- % DCDQ of Brain Radioactivity ([1]; male rats, 2 hr): 90.4 ± 0.9%
- % DCDQ of Brain Radioactivity ([1]; male rats, 4 hr): 90.4 ± 0.5%
- % DCDQ of Brain Radioactivity ([1]; male rats, 8 hr): 90.0 ± 1.2%

SMILES: OC1[C@@H]2CCC[C@@H]2c2cccc3c2N1CCNC3 (stereo partly shown) [Metabolite M2, hydroxy DCDQ]
- metabolite detected in feces [2]: detected

SMILES: O=C(O)[C@H]1O[C@@H](OC(=O)N2CCN3C[C@@H]4CCC[C@@H]4c4cccc(c43)C2)[C@H](O)[C@@H](O)[C@@H]1O [Metabolite M6, carbamoyl glucuronide of DCDQ]
- metabolite detected in feces [2]: not detected

SMILES: c1cc2c3c(c1)[C@H]1CCC[C@H]1CN3CCNC2 [[^14C]DCDQ]
- Brain concentration of radioactivity, Total ([1]; female rats, 2 hr, mean ± S.D., N = 3): 6.38 ± 2.22 μg equivalents/g
- Brain concentration of radioactivity, Total ([1]; female rats, 8 hr, mean ± S.D., N = 3): 2.85 ± 0.68 μg equivalents/g
- Brain concentration of radioactivity, Total ([1]; male rats, 2 hr, mean ± S.D., N = 3): 5.12 ± 1.28 μg equivalents/g
- Brain concentration of radioactivity, Total ([1]; male rats, 4 hr, mean ± S.D., N = 3): 4.94 ± 0.44 μg equivalents/g
- Brain concentration of radioactivity, Total ([1]; male rats, 8 hr, mean ± S.D., N = 3): 3.25 ± 0.99 μg equivalents/g
- Brain radioactivity concentration ([1]; male rats, 24 hour post-dose): 0.037 ± 0.002 µg equivalents/g tissue
- Brain concentration of radioactivity, Total ([1]; male rats, 24 hr, mean ± S.D., N = 3): 0.04 ± 0.00 μg equivalents/g
